Consider five compounds from patent US10858384B2, “Synthetic molecule constructs” (KODE BIOTECH LIMITED, priority 2004, dated 2020).

Where two headings read alike, the source gives them in different places.

Data set [1] is described as follows: Solubility of synthetic glycolipids in hot PBS. In kind it is physicochemical. The text has this:
In the context of this description the phrase “water soluble” means a stable, single phase system is formed when the synthetic molecule construct is contacted with water or saline (such as PBS) in the absence of organic solvents or detergents, and the term “solution” has a corresponding meaning.
For use in the transformation of cells the first criterion that synthetic glycolipids must satisfy is that they are soluble in aqueous solvents, e.g. phosphate buffered saline.
Initial tests on the molecules were to establish solubility and thus eliminate those molecules that were unsuitable for use in the transformation of cells.

For data set [2], the system named is RBCs. The data set can be described thus: Detectable transformation ability of synthetic glycolipids (agglutination). In kind it is cell-based. To be noted: agglutination with the appropriate antibody. The text has this:
The synthetic glycolipid must also be able to insert into the membrane and be recognisable to the appropriate antibody for transformation to be detected by agglutination. Initial tests on the molecules were to establish solubility and thus eliminate those molecules that were unsuitable for use in the transformation of cells.

In data set [3] the test system is RBCs. The data set can be described thus: Evaluation of insertion of different lipid tails by agglutination with the relevant antisera. The class given is cell-based. Set-up: scale not given here. The text has this: Transformation of RBCs with synthetic glycolipids with different lipid tails was first evaluated (Tables 22 and 24).
Data set [4] concerns group O red blood cells (RBCs). Nature of the data set: Tube serology of group O RBCs transformed at 37° C. with synthetic glycolipids. In kind it is cell-based, human. Also on record: Albaclone anti-A, Tube / Bioclone anti-A, Tube: scale not given here. On the procedure:
(§1) Washed packed group O red blood cells (RBCs) (3 parts by volume) and the synthetic glycolipid solution (1 part by volume, varying concentrations) were added to an eppendorf tube. The tube was incubated in a 37° C. waterbath for one hour, mixing every 15 minutes. […]
(§2) Tube serology and Diamed gel-card results for RBCs transformed with the different synthetic molecule constructs are provided in Table 38. Results for the stability of the RBCs transformed with the different synthetic glycolipids at different concentrations are provided in Tables 39 to 44.

For data set [5], the system named is group O red blood cells (RBCs). Nature of the data set: Diamed gel-card agglutination of group O RBCs transformed at 37° C. with synthetic glycolipids. Also on record: scale not given here. The class given is cell-based, human. On the procedure:
as §1, §2

The test system of another data set is Mouse RBCs. Nature of the data set: Tube serology of murine RBCs transformed with H-antigen synthetic glycolipids. The note with it: for H Antisera IgM, Tube: mouse RBCs; for Agglutination, UEA-1: tube serology. In kind it is cell-based. On the procedure: Washed packed mouse RBCs (3 parts by volume) and the synthetic glycolipid solutions (1 part by volume of varying concentrations) were added to an eppendorf tube. The tube was incubated in a 37° C. waterbath for one hour, mixing every 15 minutes. The transformed RBCs were washed 3× with PBS and then suspended in Cellstab™ at the appropriate concentration for serology testing.
Murine RBCs were washed 3× in 1× PBS. 30 μl of packed RBCs were combined with 30 μl of Hdi-sp-Ad-DOPE (VIII), and 30 μl of packed RBCs were combined with 30 μl Galβ-sp-Ad-DOPE (IX), respectively. Both synthetic molecule constructs were at a concentration of 1.0 mg/ml. 30 μl of 1× PBS was added to 30 μl of packed RBCs to act as the control group. Cells were incubated for 90 minutes in a 37° C. shaking water-bath. RBCs were washed 3× in 1× PBS.
Three groups of packed RBCs were incubated with an equal volume of lectin UEA-1 for 30 minutes at room temperature. The lectin was prepared in 1× PBS at a concentration of 0.1 mg/ml. 50 μl of a 3% cell suspension was spun for 15 seconds in an Immunofuge at low speed. Results were read by tube serology.

The next data set deals with red blood cells. The data set can be described thus: Association of KODE-fluorescein with cell membranes (fluorescence microscope). The class given is cell-based. The text has this: FIG. 20. Red blood cells following contact with a synthetic molecule construct (XVI) viewed with a fluorescence microscope at 470 nm under 250× magnification.
A medium to strongly fluorescing cell was considered to indicate a uniform distribution of the molecule across the cell membrane (FIG. 20).

As for `CCCCCCCCCCCCCCCCCC(=O)OC[C@H](COP(=O)(O)OCCNC(=O)CCCCC(=O)NCCCO[C@@H]1O[C@H](CO)[C@H](O)[C@H](O[C@H]2O[C@H](CO)[C@H](O)[C@H](O)[C@H]2NC(C)=O)[C@H]1O[C@@H]1O[C@@H](C)[C@@H](O)[C@@H](O)[C@@H]1O)OC(=O)CCCCCCCCCCCCCCCCC` [Atri-sp-Ad-DSPE (III)], the Water solubility entry in data set [1] (hot PBS) is on record as “Yes”. Moreover, the Detectable transformation ability entry in the data set on RBCs [2] is listed as “Yes”. Besides, the Agglutination score in the data set on RBCs [3] (10 μg/mL, Alba anti-A, first series) worked out at 0; with RBCs [3] (10 μg/mL, Bio anti-A, first series) it was 0; in the data set with RBCs [3] (20 μg/mL, Alba anti-A, first series) it was 0; in the data set with RBCs [3] (20 μg/mL, Bio anti-A, first series), 0; in the data set on RBCs [3] (30 μg/mL, Alba anti-A, first series) it was 0; in the data set with RBCs [3] (30 μg/mL, Bio anti-A, first series) it was 0. The Agglutination score is reported as 0 with RBCs [3] (40 μg/mL, Alba anti-A, first series); 0 with RBCs [3] (40 μg/mL, Bio anti-A, first series); 0 in the data set with RBCs [3] (50 μg/mL, Alba anti-A, first series); 0 in the data set with RBCs [3] (50 μg/mL, Bio anti-A, first series); 0 in the data set with RBCs [3] (1000 μg/mL, DBA). Further, the “Albaclone anti-A, Tube” value in data set [4] (0.01 mg/mL), in data set [4] (0.02 mg/mL), in data set [4] (0.03 mg/mL), in data set [4] (0.04 mg/mL) and in data set [4] (0.05 mg/mL) was 0 each time. Also, the “Bioclone anti-A, Tube” value in data set [4] (0.01 mg/mL), in data set [4] (0.02 mg/mL), in data set [4] (0.03 mg/mL), in data set [4] (0.04 mg/mL) and in data set [4] (0.05 mg/mL) was 0 each time. Moreover, the “Albaclone anti-A, Diamed” value in data set [5] (0.01 mg/mL), in data set [5] (0.05 mg/mL), in data set [5] (0.1 mg/mL) and in data set [5] (0.25 mg/mL) was 0 throughout. For the same compound, the “Bioclone anti-A, Diamed” value in data set [5] (0.01 mg/mL), in data set [5] (0.05 mg/mL), in data set [5] (0.1 mg/mL) and in data set [5] (0.25 mg/mL) was 0 throughout.
In the case of `CCCCCCCC/C=C\CCCCCCCC(=O)OC[C@H](COP(=O)(O)OCCNC(=O)CCCCC(=O)NCCCO[C@@H]1O[C@H](CO)[C@H](O)[C@H](O)[C@H]1O)OC(=O)CCCCCCC/C=C\CCCCCCCC` [Galβ-sp-Ad-DOPE (IX)], in data set [1], the Water solubility entry is listed as “Yes”. In addition, in the data set on RBCs [2], the Detectable transformation ability entry was “lack of detectable transformation and No”. Also, the “H Antisera IgM, Tube” value with Mouse RBCs (0.01 mg/mL), in the data set with Mouse RBCs (0.05 mg/mL), with Mouse RBCs (0.1 mg/mL) and in the data set on Mouse RBCs (0.25 mg/mL) was 0 in each case.
As to `CCCCCCCC/C=C\CCCCCCCC(=O)OC[C@H](COP(=O)(O)OCCNC(=O)CCCCC(=O)NCCCO[C@@H]1O[C@H](CO)[C@H](O)[C@H](O)[C@H]1O)OC(=O)CCCCCCC/C=C\CCCCCCCC` [Galβ], in the data set with Mouse RBCs (Murine RBC, 1 mg/ml), the “Agglutination, UEA-1” value was found to be 0.
Regarding `CCCCCCCC/C=C\CCCCCCCC(=O)OC[C@H](COP(=O)(O)OCCNC(=O)CCCCC(=O)NCCCO[C@@H]1O[C@H](CO)[C@H](O)[C@H](O)[C@H]1O[C@@H]1O[C@@H](C)[C@@H](O)[C@@H](O)[C@@H]1O)OC(=O)CCCCCCC/C=C\CCCCCCCC` [Hdi-sp-Ad-DOPE (VIII)], in data set [1] (hot PBS), the Water solubility entry was “Yes”. In addition, the Detectable transformation ability result with RBCs [2] was “lack of detectable transformation and No”. The “H Antisera IgM, Tube” value with Mouse RBCs (0.01 mg/mL), in the data set with Mouse RBCs (0.05 mg/mL), with Mouse RBCs (0.1 mg/mL) and with Mouse RBCs (0.25 mg/mL) was 0 in each case. The “Detection of transformed murine RBCs by anti-H IgM and UEA-1” value in the data set on Mouse RBCs (1.0 mg/ml, 37° C. 90 minutes) is on record as “neither anti-H IgM nor UEA-1 detects”. Besides, in the data set with Mouse RBCs (Murine RBC, 1 mg/ml), the “Agglutination, Mouse IgM^H” value came to 0. In addition, the “Agglutination, UEA-1” value in the data set with Mouse RBCs (Murine RBC, 1 mg/ml) turned out to be 0.
With `CCCCCCCCC=CCCCCCCCC(=O)OCC(COP(=O)(O)OCCNC(=O)CCCCC(=O)NCCCCCNC(=S)Nc1ccc(-c2c3ccc(=O)cc-3oc3cc(O)ccc23)c(C(=O)O)c1)OC(=O)CCCCCCCC=CCCCCCCCC` (centres unmarked) [KODE-fluorescein (I)], in the data set with red blood cells, the “Association with the membrane of red blood cells” value is reported as “readily associates” and the “Concentration of dispersion at which insertion is observed” value is “greater than 0.1 mg/ml”. For the same compound, the “Period for which incorporation and distribution appears stable” value with red blood cells (cells stored in the dark) is on record as “at least 40 days”.
